One series concerns human PRP. Kind of series: Human platelet aggregation inhibition test. Format: cell-based. The conditions noted are these: ADP (1×10^−5 M) induced aggregation. Here is the method:
Blood collected from healthy human volunteers in aqueous trisodium citrate solution was centrifuged at 150 g for 15 min and the upper layer was recovered to obtain platelet-rich plasma (PRP). The residual blood was centrifuged at 3000 g for 10 min and the supernatant was collected as platelet-poor plasma (PPP). Platelet concentration in the PRP was determined using the Z series Beckman Coulter particle counter (Beckman, Fullerton, Calif.) and adjusted to 250,000 platelets/μL using PPP. 480 μL of PRP was pre-incubated at 37° C. and stirred at 1200 rpm with 10 μL aqueous test compound solution for 1 min prior to induction of aggregation by the addition of 10 μL of aqueous adenosine diphosphate (ADP) solution to adjust the final ADP concentration in the PRP to 1×10^−5 M. The maximal amplitude of aggregation response within 3 min was determined and measured in triplicate using the Chronolog model 490 aggregometer (Chrono-log Corp., Havertown, Pa.). Percent inhibition of aggregation was calculated from the maximum decrease in optical density of the control (addition of water in place of the test compound solution) sample and of the samples containing test compound. The test compound was added to adjust the final concentration to the range 10^−9 to 10^−4 M, and IC50 values were determined by inhibition percentage of aggregation at each concentration.

Series [1] deals with human prostacyclin (PGI2) receptor (Homo sapiens (Human), UniProt P43119). Description: HTRF assay for direct cAMP measurement. The class given is cell-based. The conditions noted are these: recombinant CHO-K1 cells stably transfected with human prostacyclin receptor; cAMP increase. The text has this: Compounds were screened for agonists of the human prostacyclin (PGI2) receptor using the HTRF® assay for direct cAMP measurement (Gabriel et al., ASSAY and Drug Development Technologies, 1:291-303, 2003) and recombinant CHO-K1 cells stably transfected with human prostacyclin receptor. CHO-K1 cells were obtained from ATCC® (Manassas, Va.; Catalog # CCL-61). An agonist of the prostacyclin receptor was detected in HTRF® assay for direct cAMP measurement as a compound which increased cAMP concentration. HTRF® assay also was used to determine EC50 values for prostacyclin receptor agonists.
The HTRF® assay kit was purchased from Cisbio-US, Inc. (Bedford, Mass.; Catalog #62AM4PEC). The HTRF® assay supported by the kit is a competitive immunoassay between endogenous cAMP produced by the CHO-K1 cells and tracer cAMP labeled with the dye d2. The tracer binding is visualized by a monoclonal anti-cAMP antibody labeled with Cryptate. The specific signal (i.e., fluorescence resonance energy transfer, FRET) is inversely proportional to the concentration of unlabeled cAMP in the standard or sample.
The fluorescence ratio (665 nm/620 nm) of the standards (0.17 to 712 nM cAMP) included in the assay was calculated and used to generate a cAMP standard curve according to the kit manufacturer's instructions. The fluorescence ratio of the samples (test compound or compound buffer) was calculated and used to deduce respective cAMP concentrations by reference to the cAMP standard curve.
The HTRF® assay was carried out using a two-step protocol essentially according to the kit manufacturer's instructions, in 20 μL total volume per well in 384-well plate format (ProxiPlates; PerkinElmer, Fremont, Calif.; catalog #6008280). To each of the experimental wells was transferred 3000 recombinant CHO-K1 cells in 5 μL assay buffer (phosphate buffered saline containing calcium chloride and magnesium chloride (Invitrogen, Carlsbad, Calif.; catalog #14040) supplemented with IBMX (100 μM) and rolipram (10 μM) (phosphodiesterase inhibitors; Sigma-Aldrich, St. Louis, Mo.; catalog #15879 and catalog # R6520, respectively) and 0.1% bovine serum albumin (BSA) fraction V (Sigma-Aldrich; catalog # A3059)), followed by test compound in 5 μL assay buffer or 5 μL assay buffer. The plate was then incubated at room temperature for 1 h. To each well was then added 5 μL cAMP-d2 conjugate in lysis buffer and 5 μL Cryptate conjugate in lysis buffer according to the kit manufacturer's instructions. The plate was then further incubated at room temperature for 1 h, after which the assay plate was read.
The HTRF® readout was accomplished using a PHERAstar (BMG LABTECH Inc., Durham, N.C.) or EnVision™ (PerkinElmer, Fremont Calif.) microplate reader.
In general terms: TR-FRET usually uses a lanthanide donor and a delayed reading to cut background.

Series [2] has as its system MCT-induced pulmonary arterial hypertension. Kind of series: Rat monocrotaline (MCT) model of pulmonary arterial hypertension. The class given is in vivo. The conditions noted are these: 30 mg/kg oral gavage twice a day for 21 days; 60 mg/kg MCT s.c.; male Wistar rats. Here is the method:
Male Wistar rats (100-150 g at start of study) (Charles River Laboratories, Wilmington, Mass.) were housed two per cage and maintained in a humidity—(40-60%) and temperature—(68-72° F.) controlled facility on a 12 hr:12 hr light/dark cycle (lights on at 6:30 am) with free access to food (Harlan Teklad, Orange Calif., Rodent Diet 8604) and water. Rats were allowed one week of habituation to the animal facility before testing.
The rat monocrotaline (MCT) model is a standard and well-accepted model of pulmonary arterial hypertension. MCT induces acute pulmonary endothelial damage associated with pulmonary vascular inflammation. […]
Rats were randomly given a single subcutaneous injection of either 60 mg/kg MCT (Sigma, St. Louis, Mo.) or 0.9% saline (sham) and assigned to receive oral administration of 20% hydroxypropyl beta-cyclodextrin (vehicle) or test compound (30 mg/kg; FIGS. 7 and 8). […] Heart chamber weights were measured on Day 22. […] The ratio of right ventricular (RV) weight to left ventricle plus septum (LV+S) weight (this ratio is indicated as “RV/(LV+S)” in FIGS. 7 and 8) was calculated as an index of the hypertrophic response to the induced pulmonary arterial hypertension and, as such, as an index of a test compound's therapeutic efficacy for pulmonary arterial hypertension.

The subject of series [3] is cynomolgus monkey hepatocytes. Description: Hepatocyte metabolism of Compound 22 sodium salt, monkey. The class given is in vitro ADME. To be noted: 100 μM, up to 240 min. Here is the method: (§1) All cryopreserved hepatocytes were thawed and diluted to a desired cell density (1×10^6 cells/mL) according to the supplier's (Xenotech) guidelines using hepatocytes isolation kit. Cell viability was determined by trypan blue exclusion using a hemacytometer. A typical incubation mixture contained human, cynomolgus monkey, beagle dog or Sprague-Dawley rat hepatocytes (200,000 cells/199 μL) in designated wells of a 48-well plate containing incubation medium (Phenol red-free Waymouth's medium). […] One incubation plate was prepared for each time point (i.e., 0, 60, 120, and 240 min) with samples being prepared in duplicate. Incubations were conducted at 37° C., 5% CO2 and 100% relative humidity in an incubator. At each time point, one incubation plate was removed form the incubator, and reaction was terminated by adding 400 μL of acetonitrile containing an internal standard. For the 0 min time point, the reactions were kept on ice before adding Compound 22 sodium salt. After 5 min on ice, the reaction mixture was terminated by adding 400 μL of acetonitrile containing an internal standard. Supernatants were transferred to labeled strip tubes with caps, which were vortexed for 3 min, and then sonicated for an additional 3 min. The samples were centrifuged for 10 min at 4000 rpm and the supernatants were used for metabolite identification. […]

Another series has as its system human hepatocytes. Kind of series: Hepatocyte metabolism of Compound 22 sodium salt, human. The class given is in vitro ADME. The conditions noted are these: 100 μM, up to 240 min. The method, then: as §1
A further series relates to beagle dog hepatocytes. Kind of series: Hepatocyte metabolism of Compound 22 sodium salt, dog. Format: in vitro ADME. The conditions noted are these: 100 μM, up to 240 min. Here is the method: as §1
Series [4] concerns Sprague-Dawley rat hepatocytes. Description: Hepatocyte metabolism of Compound 22 sodium salt, rat. Format: in vitro ADME. The conditions noted are these: 100 μM, up to 240 min. The method, then: as §1

Broadly, the IC50 is the concentration that gives 50% inhibition. The EC50 is the midpoint of the concentration-response curve.

Sequence of human prostacyclin (PGI2) receptor (P43119 whole entry): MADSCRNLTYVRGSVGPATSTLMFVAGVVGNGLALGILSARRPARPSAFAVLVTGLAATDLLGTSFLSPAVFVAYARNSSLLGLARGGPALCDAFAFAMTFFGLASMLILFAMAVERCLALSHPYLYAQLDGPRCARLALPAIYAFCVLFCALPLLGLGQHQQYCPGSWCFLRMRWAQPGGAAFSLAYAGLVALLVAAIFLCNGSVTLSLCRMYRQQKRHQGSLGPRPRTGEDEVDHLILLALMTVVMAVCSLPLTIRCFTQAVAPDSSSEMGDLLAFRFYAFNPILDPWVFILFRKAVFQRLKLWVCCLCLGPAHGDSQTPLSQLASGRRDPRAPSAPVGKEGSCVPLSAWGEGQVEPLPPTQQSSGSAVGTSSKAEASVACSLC

The molecule `O=C(O)COC[C@H]1CC[C@H](CNC(=O)N(c2ccccc2)c2ccccc2)CC1` [Compound 2, 2-(((1r,4r)-4-((3,3-diphenylureido)methyl)cyclohexyl)methoxy)acetic acid] gave an IC50 with human PRP of 73 nM.

With `O=C(O)COC[C@H]1CC[C@H](CNC(=O)N(c2ccccc2)c2cccc(Cl)c2)CC1` [Compound 6, 2-(((1r,4r)-4-((3-(3-chlorophenyl)-3-phenylureido)methyl)cyclohexyl)methoxy)acetic acid], in series [1], the EC50 amounted to 61.1 nM.

With `O=C(O)COC[C@H]1CC[C@H](COC(=O)N(c2ccccc2)c2cccc(F)c2)CC1` [Compound 23, 2-(((1r,4r)-4-(((3-fluorophenyl)(phenyl)carbamoyloxy)methyl)cyclohexyl)methoxy)acetic acid], in series [2], the “hypertrophic response, RV/(LV+S)” value is “inhibited the hypertrophic response”.

`O=C(O)COC[C@H]1CC[C@@H](COC(=O)N(c2ccccc2)c2cccc(Cl)c2)CC1` [Compound 30, 2-(((1s,4s)-4-(((3-chlorophenyl)(phenyl)carbamoyloxy)methyl)cyclohexyl)methoxy)acetic acid] showed a concentration for half-maximal inhibition (IC50) in the series on human PRP of 210 nM.

For `O=C(O)COC[C@H]1CC[C@@H](COC(=O)N(c2ccccc2)c2ccc(F)cc2)CC1` [Compound 35, 2-(((1s,4s)-4-(((4-fluorophenyl)(phenyl)carbamoyloxy)methyl)cyclohexyl)methoxy)acetic acid], the concentration for a half-maximal effect (EC50) in series [1] is 56.9 nM.

`Cc1ccc(N(C(=O)OC[C@H]2CC[C@H](COCC(=O)O)CC2)c2ccccc2)s1` [Compound 50, 2-(((1r,4r)-4-(((5-methylthiophen-2-yl)(phenyl)carbamoyloxy)methyl)cyclohexyl)methoxy)acetic acid] gave an IC50 in the series with human PRP of 12.6 nM.

Turning to `COc1ccc(N(C(=O)OC[C@H]2CC[C@H](COCC(=O)O)CC2)c2cccc(F)c2)cc1` [Compound 55, 2-(((1r,4r)-4-(((3-fluorophenyl)(4-methoxyphenyl)carbamoyloxy)methyl)cyclohexyl)methoxy)acetic acid], the EC50 in series [1] was found to be 5.14 nM.

In the case of `Cc1ccc(N(C(=O)OC[C@H]2CC[C@H](COCC(=O)O)CC2)c2cccc(F)c2)s1` [Compound 71, 2-(((1r,4r)-4-(((3-fluorophenyl)(5-methylthiophen-2-yl)carbamoyloxy)methyl)cyclohexyl)methoxy)acetic acid], the EC50 in series [1] was determined as 19.1 nM.

Turning to `CCOc1ccc(N(C(=O)OC[C@H]2CC[C@H](COCC(=O)O)CC2)c2ccccc2)cc1` [Compound 88, 2-(((1r,4r)-4-(((4-ethoxyphenyl)(phenyl)carbamoyloxy)methyl)cyclohexyl)methoxy)acetic acid], the 50% inhibitory concentration (IC50) in the series on human PRP stood at 70 nM.

On to `O=C(O)CNC(=O)COC[C@H]1CC[C@H](COC(=O)N(c2ccccc2)c2ccc(Cl)cc2)CC1` [Compound 100, 2-(2-(((1r,4r)-4-(((4-chlorophenyl)(phenyl)carbamoyloxy)methyl)cyclohexyl)methoxy)acetamido) acetic acid], for which, in series [3], the “metabolite of Compound 22 sodium salt in monkey hepatocytes” value is on record as “detected”. Besides, in the series on human hepatocytes, the “metabolite of Compound 22 sodium salt in human hepatocytes” value is “detected”. Further, in the series with beagle dog hepatocytes, the “metabolite of Compound 22 sodium salt in dog hepatocytes” value is “only detected in human and monkey”. For the same molecule, in series [4], the “metabolite of Compound 22 sodium salt in rat hepatocytes” value is “only detected in human and monkey”.

These data come from US10668033B2, “Modulators of the prostacyclin (PGI2) receptor useful for the treatment of disorders related thereto” (Arena Pharmaceuticals, Inc., priority 2008, dated 2020).
